Where a name gives a salt, the structure may show the parent alone. Read-outs that look alike come from different tables or passages of the source.
What was measured:
Type in all cases: cell-based, human
HTT mRNA [1] = assay: Splicing RT-qPCR assay, HTT canonical (CJ) and alternative (AJ) junction mRNA; conditions: Homo sapiens, A673 or K562 cells, 24 hours compound treatment; for IC50: 24 h, read-out: HTT CJ (IC50, decrease in canonical junction mRNA); for AC50: read-out: HTT AJ (AC50, increase in alternative junction mRNA)
Outline: (§1)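 Compound-induced exon inclusion is tracked as an increase in AJ transcript alongside the CJ transcript. Cells (A673 normalized to PPIA; K562 to GAPDH or GUSB) are dosed 24 h with a serial dilution topping at 10 uM, ≤0.25% DMSO, then lysed and analysed by RT-qPCR in at least duplicate.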

SMN2 mRNA = assay: Splicing RT-qPCR gene panel, SMN2 canonical junction (CJ) mRNA; conditions: Homo sapiens, Tables 4A/4B, read-out: SMN2 (IC50, decrease in CJ mRNA, gene panel)
Outline: (§2)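 Cells (A673 in DMEM/10% FBS, K562 in IMDM/10% FBS) got compound for 24 h, top dose 10 uM, 11 points, 3-fold steps, DMSO ≤0.25%. Lysates went to RT-qPCR for the canonical exon-exon junction; ΔΔCt against housekeeper and DMSO gave RQ, then percentage response.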

HTT mRNA [2] = assay: Splicing RT-qPCR gene panel, HTT canonical junction (CJ) mRNA; conditions: Homo sapiens, Tables 4A/4B, read-out: HTT (IC50, decrease in CJ mRNA, gene panel)
Outline: as §2

MYB mRNA = assay: Splicing RT-qPCR assay, MYB canonical (CJ) and alternative (AJ) junction mRNA; conditions: Homo sapiens; for AC50: read-out: MYB AJ (AC50, increase in alternative junction mRNA)
Outline: as §1

Target C mRNA = assay: Splicing RT-qPCR gene panel, Target C canonical junction (CJ) mRNA; conditions: Homo sapiens, Tables 4A/4B, read-out: Target C (IC50, decrease in CJ mRNA, gene panel)
Outline: as §2

[3] = 24 h, A673 or K562 cells, 24 hours compound treatment, RT-qPCR
[4] = 24 h, A673 or K562 cells, 24 hours compound treatment, RT-qPCR, read-out: MYB CJ (IC50, decrease in canonical junction mRNA)
[5] = Tables 4A/4B, canonical junction qPCR panel, read-out: MYB (IC50, decrease in CJ mRNA, gene panel)

| SMILES | IC50 (HTT mRNA [1]) [nM] | AC50 (HTT mRNA [1]) [nM] | IC50 (SMN2 mRNA) [nM] | IC50 (HTT mRNA [2]) [nM] | AC50 (MYB mRNA; [3]) [nM] | IC50 (MYB mRNA; [4]) [nM] | IC50 (MYB mRNA; [5]) [nM] | IC50 (Target C mRNA) [nM] |
| --- | --- | --- | --- | --- | --- | --- | --- | --- |
| Cc1cn2cc(NC(=O)c3ccc(N4CCNCC4)c4c[nH]nc34)cc(Cl)c2n1 [Compound 286] | > 10000 | > 10000 | 100 to 1000 | > 10000 | 1000 to 10000 | 100 to 1000 | 100 to 1000 | > 10000 |
| CCn1cc2c(N3C[C@H]4CC[C@@H](C3)N4)ccc(C(=O)Nc3cc(F)c4nc(C)cn4c3)c2n1 [Compound 289, 4-[(1R,5S)-3,8-diazabicyclo[3.2.1]octan-3-yl]-2-ethyl-N-{8-fluoro-2-methylimidazo[1,2-a]pyridin-6-yl}indazole-7-carboxamide] | 1000 to 10000 | > 10000 | < 100 | 1000 to 10000 | 100 to 1000 | 100 to 1000 | 100 to 1000 | > 10000 |
| Cc1cn2cc(NC(=O)c3ccc(N4CCNCC4)c4cn(C(C)C)nc34)cc(F)c2n1 [Compound 290, N-{8-fluoro-2-methylimidazo[1,2-a]pyridin-6-yl}-2-isopropyl-4-(piperazin-1-yl)indazole-7-carboxamide] | > 10000 | > 10000 | < 100 | > 10000 | 100 to 1000 | 100 to 1000 | 100 to 1000 | > 10000 |
| Cc1cn2cc(NC(=O)c3ccc(N4CCNCC4)c4cn(CCO)nc34)cc(F)c2n1 [Compound 291, N-{8-fluoro-2-methylimidazo[1,2-a]pyridin-6-yl}-2-(2-hydroxyethyl)-4-(piperazin-1-yl)indazole-7-carboxamide hydrochloride] | 1000 to 10000 | 1000 to 10000 | < 100 | 1000 to 10000 | 100 to 1000 | 100 to 1000 | 100 to 1000 | 1000 to 10000 |
| COCCn1cc2c(N3CCNCC3)ccc(C(=O)Nc3cc(F)c4nc(C)cn4c3)c2n1 [Compound 292, N-{8-fluoro-2-methylimidazo[1,2-a]pyridin-6-yl}-2-(2-methoxyethyl)-4-(piperazin-1-yl)indazole-7-carboxamide hydrochloride] | 1000 to 10000 | 1000 to 10000 | < 100 | 1000 to 10000 | < 100 | < 100 | < 100 | 1000 to 10000 |
| Cc1cn2cc(NC(=O)c3ccc(N4CCNCC4)c4cn(C)nc34)nc(C)c2n1 [Compound 293, N-{2,8-dimethylimidazo[1,2-a]pyrazin-6-yl}-2-methyl-4-(piperazin-1-yl)indazole-7-carboxamide] | 1000 to 10000 | 100 to 1000 | < 100 | 1000 to 10000 | < 100 | < 100 | < 100 | > 10000 |
| Cc1cn2cc(NC(=O)c3ccc(N4CCNCC4)c4cn(C5CC5)nc34)cc(F)c2n1 [Compound 294, 2-cyclopropyl-N-{8-fluoro-2-methylimidazo[1,2-a]pyridin-6-yl}-4-(piperazin-1-yl) indazole-7-carboxamide] | 100 to 1000 | 1000 to 10000 | < 100 | 100 to 1000 | < 100 | < 100 | < 100 | > 10000 |
| Cc1cn2cc(NC(=O)c3ccc(N4CCNCC4)c4cn(C5COC5)nc34)cc(F)c2n1 [Compound 295, N-{8-fluoro-2-methylimidazo[1,2-a]pyridin-6-yl}-2-(oxetan-3-yl)-4-(piperazin-1-yl)indazole-7-carboxamide] | > 10000 | 1000 to 10000 | < 100 | > 10000 | 100 to 1000 | 100 to 1000 | 100 to 1000 | > 10000 |
| Cc1cn2cc(NC(=O)c3ccc(N4CCC(NC5CC5)C4)c4cn(C)nc34)cc(F)c2n1 (centres unmarked) [Compound 296, 4-[3-(cyclopropylamino)pyrrolidin-1-yl]-N-{8-fluoro-2-methylimidazo[1,2-a]pyridin-6-yl}-2-methylindazole-7-carboxamide] | > 10000 | > 10000 | < 100 | > 10000 | < 100 | < 100 | < 100 | > 10000 |
| Cc1cn2cc(NC(=O)c3ccc(N4CCNCC4)c4c(C)n(C)nc34)cc(F)c2n1 [Compound 297] | 1000 to 10000 | 1000 to 10000 | 100 to 1000 | 1000 to 10000 | 1000 to 10000 | 1000 to 10000 | 1000 to 10000 | 1000 to 10000 |
| CNC1CCN(c2ccc(C(=O)Nc3cc(F)c4nc(C)cn4c3)c3nn(C)cc23)C1 (centres unmarked) [Compound 298, N-{8-fluoro-2-methylimidazo[1,2-a]pyridin-6-yl}-2-methyl-4-[3-(methylamino)pyrrolidin-1-yl]indazole-7-carboxamide trifluoroacetic acid salt] | 1000 to 10000 | 1000 to 10000 | < 100 | 1000 to 10000 | 100 to 1000 | < 100 | < 100 | 1000 to 10000 |
| Cc1cn2cc(NC(=O)c3ccc(N4CCC5(CCN5)C4)c4cn(C)nc34)cc(F)c2n1 (centres unmarked) [Compound 299, 4-{1,6-diazaspiro[3.4]octan-6-yl}-N-{8-fluoro-2-methylimidazo[1,2-a]pyridin-6-yl}-2-methylindazole-7-carboxamide] | > 10000 | > 10000 | < 100 | > 10000 | 100 to 1000 | 100 to 1000 | 100 to 1000 | > 10000 |
| Cc1cn2cc(NC(=O)c3cc(C)c(N4CCNCC4)c4cn(C)nc34)cc(F)c2n1 [Compound 300] | > 10000 | > 10000 | 100 to 1000 | > 10000 | 100 to 1000 | 1000 to 10000 | 1000 to 10000 | > 10000 |
| Cc1cn2cc(NC(=O)c3ccc(N4CCC5(CCN5)CC4)c4cn(C)nc34)cc(F)c2n1 [Compound 301, 4-{1,7-diazaspiro[3.5]nonan-7-yl}-N-{8-fluoro-2-methylimidazo[1,2-a]pyridin-6-yl}-2-methylindazole-7-carboxamide trifluoroacetic acid salt] | 100 to 1000 | 100 to 1000 | < 100 | 100 to 1000 | < 100 | < 100 | < 100 | 1000 to 10000 |
| COCCCn1cc2c(N3CCNCC3)ccc(C(=O)Nc3cc(F)c4nc(C)cn4c3)c2n1 [Compound 302, N-{8-fluoro-2-methylimidazo[1,2-a]pyridin-6-yl}-2-(3-methoxypropyl)-4-(piperazin-1-yl)indazole-7-carboxamide] | 1000 to 10000 | 1000 to 10000 | < 100 | 1000 to 10000 | < 100 | < 100 | < 100 | > 10000 |
| Cc1cn2cc(NC(=O)c3cc(F)c(N4CCNCC4)c4cn(C)nc34)cc(F)c2n1 [Compound 303, 5-fluoro-N-{8-fluoro-2-methylimidazo[1,2-a]pyridin-6-yl}-2-methyl-4-(piperazin-1-yl)indazole-7-carboxamide] | 1000 to 10000 | 1000 to 10000 | < 100 | 1000 to 10000 | 100 to 1000 | 100 to 1000 | 100 to 1000 | > 10000 |
| Cc1cn2cc(NC(=O)c3ccc(N4CCNCC4)c4cn(C5CCOCC5)nc34)cc(F)c2n1 [Compound 304, N-{8-fluoro-2-methylimidazo[1,2-a]pyridin-6-yl}-2-(oxan-4-yl)-4-(piperazin-1-yl) indazole-7-carboxamide trifluoroacetic acid salt] | 1000 to 10000 | > 10000 | < 100 | 1000 to 10000 | 100 to 1000 | 100 to 1000 | 100 to 1000 | > 10000 |
| Cc1cn2cc(NC(=O)c3ccc(N4CCNCC4)c4cn(CCF)nc34)cc(F)c2n1 [Compound 305, N-{8-fluoro-2-methylimidazo[1,2-a]pyridin-6-yl}-2-(2-fluoroethyl)-4-(piperazin-1-yl)indazole-7-carboxamide] | 1000 to 10000 | 1000 to 10000 | < 100 | 1000 to 10000 | 100 to 1000 | 100 to 1000 | 100 to 1000 | > 10000 |
| COCCn1cc2c(N3C[C@@H](C)N[C@@H](C)C3)ccc(C(=O)Nc3cc(F)c4nc(C)cn4c3)c2n1 [Compound 306, 4-[(3R,5S)-3,5-dimethylpiperazin-1-yl]-N-{8-fluoro-2-methylimidazo[1,2-a]pyridin-6-yl}-2-(2-methoxyethyl) indazole-7-carboxamide] | 1000 to 10000 | 1000 to 10000 | < 100 | 1000 to 10000 | < 100 | 100 to 1000 | 100 to 1000 | > 10000 |
